In brackets after ≈: the same amount, converted by molar mass.

In general, half-life refers to how long it takes for the measured level to halve. What is called EC50 is the concentration giving half of the maximal effect. Usually EC90 stands for the concentration at which the effect reaches the 90% level.

Series [1] is described as follows: in vitro. The settings on record: male, SD, rat, plasma.
In series [2] the test system is MERS-CoV (EMC). It counts as cell-based. As to conditions: SI = CC50/EC50.
The test system of series [3] is Epstein-Barr virus (EBV), Akata strain. Also on record: SI50 / SI90: unit not given beside the values.
Series [4] concerns Tacaribe virus (TCRV, TRVL-11573). Also on record: SI50 (SI): unit not given beside the values.
Series [5] relates to influenza/California/07/2009 (H1N1)pdm09. As to conditions: for SI50 (SI): Influenza(H1N1), SI = CC50/EC50.
Series [6] relates to dengue virus-2 (DENV-2, New Guinea C). As to conditions: SI = CC50/EC50.
In series [7] the test system is SARS-CoV-2 (USA-WA1/2020). The settings on record: for SI50 (SI): SARS-CoV-2, SI = CC50/EC50.
For series [8], the system named is BK virus (BKV), Gardner strain. Also on record: SI50 / SI90: unit not given beside the values.
Series [9] deals with respiratory syncytial virus (RSV, A2). The settings on record: for SI50 (SI): RSV, SI = CC50/EC50.
The test system of series [10] is Influenza B/Florida/4/2006 (Yamagata). As to conditions: for SI50 (SI): Influenza B, SI = CC50/EC50.
Series [11] relates to enterovirus-68 (EV-68, US/DY/14-18953). As to conditions: for SI50 (SI): EV-68, SI = CC50/EC50.
The subject of series [12] is Zika virus.
A short description of series [13]: in vitro. The settings on record: both, human, plasma.
Series [14] has as its system adenovirus-5 (Ad5).
Series [15] deals with HCMV AD169. Briefly: HCMV plaque reduction assay, MRC-5 cells, strain AD169. The format is cell-based, Human cytomegalovirus. The settings on record: hCMV AD169, MRC5 cells, plaque assay, 6-days duration.
For series [16], the target named is SARS-Cov2 RdRp (nsp12-nsp7-nsp8) (Severe acute respiratory syndrome coronavirus 2, UniProt P0DTD1). It counts as biochemical. The settings on record: primer extension; analog at 100 uM, printed 100 mM.
Series [17] deals with JC virus (JCV).
Series [18] deals with Human cytomegalovirus (HCMV), strain AD169. The settings on record: for EC50 / EC90: drug concentration 0.048-150 μM.
Series [19] deals with RSV.
Series [20] has as its system influenza A(H1N1).
Series [21] has as its system TCRV.
The subject of series [22] is Influenza B.
Series [23] concerns Rift Valley fever virus (RVFV).
Series [24] has as its system influenza A(H5N1).
In series [25] the test system is enterovirus-68 (EV-68).

Take `COc1ccc([C@@H]2Sc3ccccc3N(CCN(C)C)C(=O)[C@@H]2OC(C)=O)cc1` [Diltiazem]: the half-life at 0.75 µM in series [1] came to 2.08 h.

Turning to `CC(C)(C)C(=O)SCCOP(=O)(OCCSC(=O)C(C)(C)C)OCC1=CC(O)C(n2cnc3c(=O)[nH]cnc32)O1` (stereo not shown) [SATE-ddhI], the “SI50 (SI)” value in [2], in series [4], in series [5], in series [6], in series [7] and in series [9] was 0 in each case. Moreover, the “SI50 (SI)” value in series [10] and in series [11] was 0 in each case. Further, the Activity result in series [3] is recorded as “MOD (key: NA (Not Active) SI50 = 0-3.9; MOD (Moderately Active) SI50 = 4-9.9; HI (Highly Active) SI50 = ≥10)”; in series [8], “NA (key: NA (Not Active) SI50 = 0-3.9; MOD (Moderately Active) SI50 = 4-9.9; HI (Highly Active) SI50 = ≥10)”. The CC50 in [3] was > 150 µM; in series [4], 900 µM; in series [5], > 1000 µM; in series [7], 530 µM; in series [8], > 150 µM; in series [9], > 1000 µM. Moreover, the CC50 was > 1000 µM in [10] and > 100 µM in [11]. Further, the EC50 in series [3] was 18.8 µM; in [8], 115 µM. The results for the EC90 in series [3] and in series [8] were 81.9 µM and > 150 µM, respectively. Besides, the SI50 in series [3] is listed as >8; in series [8], >1. In addition, the SI90 in series [3] was >2; in series [8], 1. In addition, the “activity against EBV (in words)” value in series [3] is “moderately active”.

In series [12], `C#C[C@@]1(O)[C@H](O)[C@@H](CO)O[C@H]1n1ccc2c(N)ncnc21` [NITD008, reference compound] gave a CC50 of 44 µg/mL (≈ 0.152 mM), an EQ50 of 1.8 µg/mL and an SI of 24.

Turning to `CC(C)(C)C(=O)SCCOP(=O)(OCCSC(=O)C(C)(C)C)OCC1=CC(O)C(n2cnc3c(N)ncnc32)O1` (stereo not shown) [SATE-ddhA], the “SI50 (SI)” value in series [2], in series [4], in series [5], in series [6], in series [7] and in [9] was 0 each time. For the same compound, the “SI50 (SI)” value in series [10] and in series [11] was 0 each time. Besides, the Activity entry in series [3] is on record as “MOD (key: NA (Not Active) SI50 = 0-3.9; MOD (Moderately Active) SI50 = 4-9.9; HI (Highly Active) SI50 = ≥10)”; in [8], “NA (key: NA (Not Active) SI50 = 0-3.9; MOD (Moderately Active) SI50 = 4-9.9; HI (Highly Active) SI50 = ≥10)”. Besides, the CC50 in series [3] came out at 55.8 µM; in series [4], 58 µM; in series [5], 180 µM; in [7] it was 49 µM; in series [8], 89.7 µM; in series [9] it was 170 µM. Moreover, the values for the CC50 in series [10] and in series [11] were 180 µM and 2 µM, respectively. The EC50 is 12.9 µM in series [3] and > 30 µM in series [8]. Also, the EC90 in [3] is 26.8 µM; in series [8], > 30 µM. Also, the figures for the SI50 in series [3] and in series [8] were 4 and <3, respectively. In addition, the SI90 in series [3] is 2; in [8], <3. The “activity against EBV (in words)” value in series [3] is “moderately active”.

With `CC(C)[N+](C)(CCOC(=O)C1c2ccccc2Oc2ccccc21)C(C)C` [Propantheline], the half-life at 0.75 µM in series [13] was 0.28 h.

As to `Nc1ccn([C@H]2CC[C@@H](CO)O2)c(=O)n1` [2-3 Dideoxycytidine], in [14], the CC50 was >100 µg/mL, the EQ50 was 1.8 µg/mL and the SI is reported as >56.

Take `Nc1nc2c(ncn2COC(CO)CO)c(=O)[nH]1` [Ganciclovir, reference compound]: in series [15], the EC50 amounted to 7.36 µM.

As for `O=c1ccn([C@@H]2O[C@H](COP(=O)(O)OP(=O)(O)OP(=O)(O)O)C[C@H]2O)c(=O)[nH]1` [3′-dUTP, 3′-deoxyuracil triphosphate, reference compound], in series [16], the “incorporation into RNA by SARS-Cov2 RdRp (in words)” value is “same level of incorporation as ddhUTP”.

Regarding `C[C@H](Cn1cnc2c(N)ncnc21)OCP(=O)(O)O` [TNV, reference compound], in series [3], the CC50 was > 150 µM, a half-maximal effect (EC50) was put at 45.8 µM, the EC90 is > 150 µM and the SI50 was >3. In series [3], this compound gave an SI90 of 1. In series [17], the CC50 was > 150 µM, the EC50 is > 150 µM and the EC90 was > 150 µM. In addition, in [8], the CC50 was > 150 µM, the EC90 is > 150 µM and the SI90 is 1. Further, in [18], the CC50 was > 150 µM, the EC50 was > 150 µM and the EC90 is > 150 µM.

With `CC(C)(C)C(=O)SCCOP(=O)(OCCSC(=O)C(C)(C)C)OCC1=CC(O)C(n2cnc3c(=O)[nH]c(N)nc32)O1` (stereo not shown) [SATE-ddhG], the “SI50 (SI)” value in [2], in series [4], in [5], in series [6], in series [7] and in series [9] was 0 in each case. The “SI50 (SI)” value in [10] and in [11] was 0 throughout. Besides, the Activity result was “HI (key: NA (Not Active) SI50 = 0-3.9; MOD (Moderately Active) SI50 = 4-9.9; HI (Highly Active) SI50 = ≥10)” in series [3] and “HI (key: NA (Not Active) SI50 = 0-3.9; LO (Slightly Active) SI50 = 4-9.9; MOD (Moderately Active) SI50 = 10-19.9; HI (Highly Active) SI50 = ≥20)” in series [8]. The CC50 in series [3] is 106 µM; in series [4] it was 610 µM; in [5], > 1000 µM; in series [7], > 1000 µM; in series [8] it was > 150 µM; in series [9] it was > 1000 µM. Further, the CC50 in series [10] is > 1000 µM; in series [11], 83 µM. Besides, the EC50 was determined as 2.98 µM in series [3] and 5.32 µM in [8]. Also, the EC90 in series [3] is > 30 µM; in [8], 5.86 µM. Moreover, the figures for the SI50 in series [3] and in [8] were 35 and >28, respectively. Further, the figures for the SI90 in series [3] and in series [8] were <4 and >26, respectively. For the same compound, in series [3], the “activity against EBV (in words)” value is on record as “highly active”. The “activity against BK virus (in words)” value in [8] is given as “highly active”.

Take `NC(=O)c1ncn([C@@H]2O[C@H](CO)[C@@H](O)[C@H]2O)n1` [Ribavirin, Ribavirin (Virazole), reference compound]: the CC50 was 42 µg/mL (≈ 0.172 mM) in [19]; >1000 µg/mL in series [20]; > 1000 µg/mL in [4]; > 1000 µg/mL in series [5]; 820 µg/mL (≈ 3.36 mM) in [21]; 310 µg/mL in series [9]. Further, the CC50 was > 1000 µg/mL in series [10]; >1000 µg/mL in [22]; 870 µg/mL (≈ 3.56 mM) in series [23] (Vero 76 cells without virus, positive control); >1000 µg/mL in [24] (MDCK cells without virus, positive control). The EQ50 amounted to 7.3 µg/mL in [19]; 4.6 µg/mL in [20]; 13 µg/mL in series [21]; 1.4 µg/mL in [22]; 14 µg/mL in series [23] (RVFV, Vero 76 cells, positive control); 1.8 µg/mL in [24] (influenza A(H5N1), MDCK cells, positive control). In addition, the SI in series [19] was 5.8; in [20], >220; in series [21], 63; in series [22], >710; in series [23], 62; in [24], >560. Besides, the “SI50 (SI)” value in series [4] is >190; in series [5] it was >130; in [9], 16; in series [10], >130.

Consider `Nc1ccn([C@@H]2OC(CO)=C[C@H]2O)c(=O)n1` [ddhC, ddh cytidine], for which the “activity against enterovirus EV-68 (in words)” value in series [25] is “exhibits some activity”.

Turning to `Nc1nc2c(ncn2COC(CO)CO)c(=O)[nH]1` [GCV], in series [18], the CC50 is > 150 µM, a half-maximal response (EC50) required 0.19 µM and the EC90 is > 150 µM.

The record behind these values is patent US12466849B2, “Anti-viral and anti-tumoral compounds” (YEDA RESEARCH AND DEVELOPMENT CO. LTD, priority 2020, dated 2025).
